Laboratory results reported in US12029748B2, “Synergistic composition for maintenance of healthy balance of microflora” (KIMBERLY-CLARK WORLDWIDE, INC., priority 2017, dated 2024).

Experiments:
L. crispatus and E. coli = assay: Therapeutic Effect Protocol: L. crispatus / E. coli co-culture, ratio after 36 hours; format: cell-based, Lactobacillus crispatus; E. coli; settings: for Therapeutic Efficacy Results (Lactobacillus/E. coli) 0.10%: nitrogen compound 0.10 wt/vol % with 1.0 wt/vol % α methyl-D glucoside (10:1); for Therapeutic Efficacy Results (Lactobacillus/E. coli) 0.10% / Therapeutic Efficacy Results (Lactobacillus/E. coli) 0.50% / Therapeutic Efficacy Results (Lactobacillus/E. coli) 1.00%: 36 hours anaerobic co-culture, 37° C.; for Therapeutic Efficacy Results (Lactobacillus/E. coli) 0.50%: nitrogen compound 0.50 wt/vol % with 1.0 wt/vol % α methyl-D glucoside (2:1); for Therapeutic Efficacy Results (Lactobacillus/E. coli) 1.00%: nitrogen compound 1.00 wt/vol % with 1.0 wt/vol % α methyl-D glucoside (1:1); for Therapeutic effect when ratio α methyl-D glucoside : nitrogen compound is less than 2:1 (1:1) / Therapeutic effect when ratio α methyl-D glucoside : nitrogen compound is at least about 2:1, but not at 1:1 / Therapeutic effect at ratio 2:1 and 10:1, but not at 1:1: with α methyl-D glucoside; for Therapeutic effect when ratio α methyl-D glucoside : nitrogen compound is less than 2:1 (1:1): ratio 1:1; for Therapeutic effect when ratio α methyl-D glucoside : nitrogen compound is at least about 2:1, but not at 1:1: ratio at least about 2:1, not 1:1; for Therapeutic effect at ratio 2:1 and 10:1, but not at 1:1: ratios 2:1 and 10:1, not 1:1
Method: As used herein the term “therapeutic effect” refers to the ability of the compositions and formulations of the present invention to stimulate the growth of Lactobacillus relative E. coli measured according to the Therapeutic Effect Protocol described below. Generally, therapeutic effect is expressed as a ratio of Lactobacillus to E. coli and is desirably greater than about 2, more preferably greater than about 20 and more desirably greater than about 100.
The data in Table 1 was tested according to the Therapeutic Effect Protocol as described further herein. The nitrogen compounds were tested for their therapeutic efficacy at three different concentrations when combined with α methyl-D glucoside (1% wt/vol %). The concentrations of the nitrogen containing compounds that were tested were 1% wt/vol %, 0.5% wt/vol %, and 0.1% wt/vol %.
Colonies of L. crispatus and E. coli were prepared as follows. A colony of L. crispatus was transferred to 7 ml de Man, Rogosa & Sharpe (MRS) broth and incubated anaerobically (using BD GasPak EZ anaerobe container system with indicator) at 37° C. without shaking for 18-20 hours. A colony of E. coli was transferred to 5 ml Tryptic Soy Broth (TSB) and incubated aerobically (shaking at 100 rpm) at 37° C. for 18-20 hours.
Colonies were then inoculated as follows. Bacterial cultures were gently vortexed and 1 mL of each culture was transferred to a corresponding 2.0 mL micro-centrifuge tube and then centrifuged for two minutes at 14,500 rpm. The cultural supernatant was removed and the cell pellet was re-suspended in 1 mL of 0.95% (wt/vol %) saline. […] For L. crispatus, the pellet was re-suspended in 1 mL of 0.95% saline to achieve ˜10^7-10^8 cfu/mL. For E. coli, the pellet was re-suspended in 1 mL of 0.95% saline to achieve ˜10^8-10^9 cfu/mL.
Media were prepared as follows.
(§1) All of the ingredients in Table 2 were combined and the pH was adjusted to 6.5. […] To evaluate the effect of various nitrogen containing therapeutic agents on the growth of bacteria, the LAPT-g media, prepared as described above, was supplemented with various nitrogen containing compound therapeutic agents to a final test concentration between 0.1 and 1.0%. As initial screening measures, solubility and initial pH of each composition were checked. If a specific composition was insoluble (as detected by visual indication of precipitates or turbidity), then no further therapeutic efficacy testing was undertaken on that composition. Additionally, if the initial pH of the composition was below 5.5 (“Low”) or was above 6.5 (“High”), then no further therapeutic efficacy testing was undertaken on that composition.
Five milliliters (5 mL) of each medium was transferred to a test tube in duplicates for subsequent inoculation. A master mixture of L. crispatus and E. coli, prepared as described above, was prepared in 1,000:1 ratio. Each (5 ml) test tube was inoculated with the master mixture to give 10^5-10^6 total CFU L. crispatus and 100-1,000 total CFU E. coli per tube.
To establish a negative control, one tube was vortexed and 100 μL was removed to determine the initial cell concentrations by serial dilutions and plating (2 plates per dilution). L. crispatus is selected on MRS agar plates incubated anaerobically at 37° C. for two days. E. coli is selected on TSA plates incubated aerobically at 37° C. for one day. The co-cultures were incubated in an anaerobic container with BD GasPaks at 37° C. for 36 hours.
The effect of the α methyl-D glucoside and the nitrogen containing compound therapeutic agents on the ratio of L. crispatus to E. coli was measured 36 hours after inoculation and a final pH of the test solutions was recorded. The co-culture tube was vortexed and 100 μL was removed to determine the final cell concentrations by serial dilutions and plating (2 plates per dilution). L. crispatus is selected on MRS agar plates incubated anaerobically at 37° C. for two days.

[1] = Initial pH screening of the composition; format: physicochemical; settings: for I pH (initial pH), 0.10%: nitrogen compound 0.10 wt/vol % with 1.0 wt/vol % α methyl-D glucoside in medium; for I pH (initial pH), 0.50%: nitrogen compound 0.50 wt/vol % with 1.0 wt/vol % α methyl-D glucoside in medium; for I pH (initial pH), 1.00%: nitrogen compound 1.00 wt/vol % with 1.0 wt/vol % α methyl-D glucoside in medium
Source text: Each composition in Table 1 went through initial screening measures of solubility and initial pH (“I pH”). […] When a specific concentration of a nitrogen containing compound was insoluble, the initial and final pH (“F pH”) of the combined composition was not measured and accordingly are each marked as “NM.” Additionally, initial pH of the composition was checked as a screening measure. The initial pH was marked as either Low (“L”), High (“H”), or Pass (“P”). A Low initial pH corresponds to an initial pH being less than 5.5, a High initial pH corresponds to an initial pH being greater than 6.5, and a Pass initial pH corresponds to the pH being at or between 5.5-6.5. […] As part of the Therapeutic Effect Protocol, a final pH was also measured after the compositions that were tested against the Lactobacillus and E. coli.
as §1

With Cl.NCCC[C@H](N)C(=O)O [L-Ornthine] the “Therapeutic Efficacy Results (Lactobacillus/E. coli) 0.10%” value (L. crispatus and E. coli) was 1.31, the “Therapeutic Efficacy Results (Lactobacillus/E. coli) 0.50%” value (L. crispatus and E. coli) was 1.24 and the “Therapeutic Efficacy Results (Lactobacillus/E. coli) 1.00%” value (L. crispatus and E. coli) was 3.97. The “Therapeutic effect when ratio α methyl-D glucoside : nitrogen compound is less than 2:1 (1:1)” value (L. crispatus and E. coli) was “provided a therapeutic effect”, the “I pH (initial pH), 0.10%” value [1] was “P (a Pass initial pH corresponds to the pH being at or between 5.5-6.5)” and the “I pH (initial pH), 0.50%” value [1] was “P (a Pass initial pH corresponds to the pH being at or between 5.5-6.5)”. The “I pH (initial pH), 1.00%” value [1] was “P (a Pass initial pH corresponds to the pH being at or between 5.5-6.5)”.
For Cl.N[C@H]1C(O)O[C@H](CO)[C@H](O)[C@@H]1O (stereo partly drawn) [D-Galactosamine HCL], the “Therapeutic Efficacy Results (Lactobacillus/E. coli) 0.10%” value (L. crispatus and E. coli) was 6.72, the “Therapeutic Efficacy Results (Lactobacillus/E. coli) 0.50%” value (L. crispatus and E. coli) was >1220 and the “Therapeutic Efficacy Results (Lactobacillus/E. coli) 1.00%” value (L. crispatus and E. coli) was 1.29. The “Therapeutic effect when ratio α methyl-D glucoside : nitrogen compound is at least about 2:1, but not at 1:1” value (L. crispatus and E. coli) was “provided a therapeutic effect”, the “Therapeutic effect at ratio 2:1 and 10:1, but not at 1:1” value (L. crispatus and E. coli) was “provided a therapeutic effect” and the “I pH (initial pH), 0.10%” value [1] was “P (a Pass initial pH corresponds to the pH being at or between 5.5-6.5)”. The “I pH (initial pH), 0.50%” value [1] was “P (a Pass initial pH corresponds to the pH being at or between 5.5-6.5)” and the “I pH (initial pH), 1.00%” value [1] was “P (a Pass initial pH corresponds to the pH being at or between 5.5-6.5)”.
For CC(=O)N[C@@H]1C(O)O[C@H](CO)[C@@H](O)[C@@H]1O (stereo partly drawn) [N-Acetyl-D-Mannosamine], the “Therapeutic Efficacy Results (Lactobacillus/E. coli) 0.10%” value (L. crispatus and E. coli) was 0.854, the “Therapeutic Efficacy Results (Lactobacillus/E. coli) 0.50%” value (L. crispatus and E. coli) was 100 and the “Therapeutic Efficacy Results (Lactobacillus/E. coli) 1.00%” value (L. crispatus and E. coli) was 0.02. The “Therapeutic effect when ratio α methyl-D glucoside : nitrogen compound is at least about 2:1, but not at 1:1” value (L. crispatus and E. coli) was “provided a therapeutic effect”, the “I pH (initial pH), 0.10%” value [1] was “P (a Pass initial pH corresponds to the pH being at or between 5.5-6.5)” and the “I pH (initial pH), 0.50%” value [1] was “P (a Pass initial pH corresponds to the pH being at or between 5.5-6.5)”. The “I pH (initial pH), 1.00%” value [1] was “P (a Pass initial pH corresponds to the pH being at or between 5.5-6.5)”.
With CC(O)C(N)=O (stereo not drawn) [DL Lactamide] the “Therapeutic Efficacy Results (Lactobacillus/E. coli) 0.10%” value (L. crispatus and E. coli) was 7.52, the “Therapeutic Efficacy Results (Lactobacillus/E. coli) 0.50%” value (L. crispatus and E. coli) was >1330 and the “Therapeutic Efficacy Results (Lactobacillus/E. coli) 1.00%” value (L. crispatus and E. coli) was 0.8. For the same compound, the “Therapeutic effect when ratio α methyl-D glucoside : nitrogen compound is at least about 2:1, but not at 1:1” value (L. crispatus and E. coli) was “provided a therapeutic effect”, the “Therapeutic effect at ratio 2:1 and 10:1, but not at 1:1” value (L. crispatus and E. coli) was “provided a therapeutic effect” and the “I pH (initial pH), 0.10%” value [1] was “P (a Pass initial pH corresponds to the pH being at or between 5.5-6.5)”. For the same compound, the “I pH (initial pH), 0.50%” value [1] was “P (a Pass initial pH corresponds to the pH being at or between 5.5-6.5)” and the “I pH (initial pH), 1.00%” value [1] was “P (a Pass initial pH corresponds to the pH being at or between 5.5-6.5)”.
With N[C@@H](Cc1ccc(O)cc1)C(=O)O [L-Tyrosine] the “Therapeutic Efficacy Results (Lactobacillus/E. coli) 0.10%” value (L. crispatus and E. coli) was 2.72 and the “I pH (initial pH), 0.10%” value [1] was “P (a Pass initial pH corresponds to the pH being at or between 5.5-6.5)”.
In the case of CNCCc1ccccc1.Cl [Methyl(2-phenylethyl)amine Hydrochloride], the “Therapeutic Efficacy Results (Lactobacillus/E. coli) 0.10%” value (L. crispatus and E. coli) is reported as 10, the “Therapeutic Efficacy Results (Lactobacillus/E. coli) 0.50%” value (L. crispatus and E. coli) is reported as <1.00 and the “Therapeutic Efficacy Results (Lactobacillus/E. coli) 1.00%” value (L. crispatus and E. coli) is reported as 3. For the same compound, the “Therapeutic effect when ratio α methyl-D glucoside : nitrogen compound is less than 2:1 (1:1)” value (L. crispatus and E. coli) was “provided a therapeutic effect”, the “Therapeutic effect when ratio α methyl-D glucoside : nitrogen compound is at least about 2:1, but not at 1:1” value (L. crispatus and E. coli) was “provided a therapeutic effect” and the “I pH (initial pH), 0.10%” value [1] was “P (a Pass initial pH corresponds to the pH being at or between 5.5-6.5)”. For the same compound, the “I pH (initial pH), 0.50%” value [1] was “P (a Pass initial pH corresponds to the pH being at or between 5.5-6.5)” and the “I pH (initial pH), 1.00%” value [1] was “P (a Pass initial pH corresponds to the pH being at or between 5.5-6.5)”.
For N[C@@H](CCO)C(=O)O [L-Homoserine], the “Therapeutic Efficacy Results (Lactobacillus/E. coli) 0.10%” value (L. crispatus and E. coli) was >750, the “Therapeutic Efficacy Results (Lactobacillus/E. coli) 0.50%” value (L. crispatus and E. coli) was 0.66 and the “Therapeutic Efficacy Results (Lactobacillus/E. coli) 1.00%” value (L. crispatus and E. coli) was 0.33. The “Therapeutic effect when ratio α methyl-D glucoside : nitrogen compound is at least about 2:1, but not at 1:1” value (L. crispatus and E. coli) was “provided a therapeutic effect”, the “I pH (initial pH), 0.10%” value [1] was “P (a Pass initial pH corresponds to the pH being at or between 5.5-6.5)” and the “I pH (initial pH), 0.50%” value [1] was “P (a Pass initial pH corresponds to the pH being at or between 5.5-6.5)”. For the same compound, the “I pH (initial pH), 1.00%” value [1] was “P (a Pass initial pH corresponds to the pH being at or between 5.5-6.5)”.
